Source: patent publication US20060122189A1, “Phenylpiperazine derivatives with a combination of partial dopamine-D2 receptor agonism and serotonin reuptake inhibition” (priority 2004, published 2006)

Experiments:
[1] = molecular target: T1, serotonin reuptake sites (Rattus norvegicus, UniProt P31652); test: In vitro affinity for serotonin reuptake sites ([3H]-paroxetine binding); details: read-out: 5-HT reuptake binding pKi (converted)
T1 construct: from tissue
Procedure: In Vitro Affinity for Serotonin Reuptake Sites
Affinity of the compounds for serotonin reuptake sites was determined using the receptor binding assay described by E. Habert et al.,: “Characterisation of [^3H]-paroxetine binding to rat cortical membranes”, Eur. J. Pharmacol., 118, 107-114, 1985.

[2] = molecular target: T2, Human dopamine D2,L receptors (Homo sapiens, UniProt P14416); test: Inhibition of forskolin-induced [3H]-cAMP accumulation in CHO-K1 cells; assay type: cell-based; details: cloned human dopamine D2,L receptors; full agonist ε=1, full antagonist ε=0
T2 construct: host or cells: CHO-K1
Procedure: Inhibition of Forskolin-Induced [^3H]-cAMP Accumulation
The in vitro functional activity at dopamine-D2 receptors, including the intrinsic activity (E) of the compounds of the invention was measured by their ability to inhibit forskolin-induced [^3H]-cAMP accumulation.
Human dopamine D2,L receptors were cloned in fibroblast cell line CHO-K1′ cells and obtained from Dr. Grandy, Vollum Institute, Portland, Oreg., USA. CHO cells were grown in a Dulbecco's modified Eagle's medium (DMEM) culture medium, supplemented with 10% heat-inactivated fetal calf serum, 2 mM glutamine, 1 mM pyruvate, 5000 units/ml penicillin, 5000 μg/ml streptomycin and 200 μg/ml G-418 at 37° C. in 93% air/7% CO2. For incubation with test compounds, confluent cultures grown in 24 wells plates were used. Each condition or substance was routinely tested in quadruplicate. Cells were loaded with 1 μCi [^3H]-adenine in 0.5 ml medium/well. After 2 hours, cultures were washed with 0.5 ml PBS containing 1 mM of the phosphodiesterase inhibitor isobutylmethylxanthine (IBMX) and incubated for 20 min with 0.5 ml PBS containing 1 mM IBMX and forskolin with or without test compound. After aspiration the reaction was stopped with 1 ml trichloroacetic acid 5% (w/v). […] 0.8 ml Extract was passed over Dowex (50WX-4 200-400 mesh) and aluminumoxide columns, eluted with water and 0.1M imidazole (pH=7.5). Eluates were mixed with 7 ml Insta-gel and radioactivity was counted with a liquid scintillation counter. The conversion of [^3H]-ATP into [^3H]-cAMP was expressed as the ratio in percentage radioactivity in the cAMP fraction as compared to combined radioactivity in both cAMP and ATP fractions, and basal activity was subtracted to correct for spontaneous activity.
Test compounds were obtained as 10 mM stock solutions in 100% DMSO, and diluted in PBS/IBMX to final concentrations. Typically, compounds were used in concentrations that ranged from 10^−10M to 10^−5M. From quadruplicate data counts, the mean was taken as an estimate for drug-induced, receptor-mediated effects at specified second messenger accumulation, expressed as percentage of control values (forskolin-stimulated cAMP accumulation, subtracted by basal activity). By using the non-linear curve-fitting program INPLOT or the Excel-add-in XL-Fit, mean values were plotted against drug concentration (in molar) and a sigmoid curve (four-parameter logistic curve) was constructed. The maximal forskolin-induced stimulated conversion is taken as maximum value and the maximal inhibition (usually at drug concentrations 10^−4 M or 10^−5 M) as minimum and these values were fixed during the fitting process. Thus, concentrations of the compound, causing 50% of the maximally obtained inhibition of forskolin-induced cAMP accumulation (EC50), are averaged over several experiments and presented as mean pEC50±SEM. Antagonist potency is assessed by co-incubating cells with a fixed agonist concentration and specified antagonist concentrations. Curve fitting procedures are identical to those used for estimating EC50 values. Thus IC50 values, i.e. the concentration that is able to achieve 50% of maximal antagonism that can be achieved by this compound. IC50 values are corrected using a Cheng-Prussoff equation, correcting it for agonist concentration and EC50 values that is obtained in the same experiment. Thus, Kb=IC50/(1+[agonist]/EC50, agonist). The corresponding pA2 value is −log (Kb). Concentration-response curve fitting allows estimation of pEC50 values and of maximal achievable effect (intrinsic activity or efficacy (ε). A full receptor agonist has ε=1, a full receptor antagonist has ε=0, and a partial receptor agonist has an intermediate intrinsic activity.

T1 sequence (P31652 whole entry): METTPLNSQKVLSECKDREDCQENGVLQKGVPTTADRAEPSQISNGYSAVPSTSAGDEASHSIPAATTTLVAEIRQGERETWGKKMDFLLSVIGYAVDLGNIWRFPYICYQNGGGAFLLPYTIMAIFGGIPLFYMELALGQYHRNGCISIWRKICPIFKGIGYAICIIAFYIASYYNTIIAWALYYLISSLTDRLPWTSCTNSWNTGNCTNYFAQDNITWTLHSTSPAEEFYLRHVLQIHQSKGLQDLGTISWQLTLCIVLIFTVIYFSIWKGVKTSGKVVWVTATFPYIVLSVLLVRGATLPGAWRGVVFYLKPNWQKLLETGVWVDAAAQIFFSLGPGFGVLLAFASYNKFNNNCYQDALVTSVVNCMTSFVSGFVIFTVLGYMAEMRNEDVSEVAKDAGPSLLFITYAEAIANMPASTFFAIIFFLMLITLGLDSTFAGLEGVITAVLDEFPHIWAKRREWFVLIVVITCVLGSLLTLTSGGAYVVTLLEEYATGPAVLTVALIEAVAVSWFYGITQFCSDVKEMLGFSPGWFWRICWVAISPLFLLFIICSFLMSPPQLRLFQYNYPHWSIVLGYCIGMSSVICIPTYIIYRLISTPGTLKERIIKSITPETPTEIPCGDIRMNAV
T2 sequence (P14416 whole entry): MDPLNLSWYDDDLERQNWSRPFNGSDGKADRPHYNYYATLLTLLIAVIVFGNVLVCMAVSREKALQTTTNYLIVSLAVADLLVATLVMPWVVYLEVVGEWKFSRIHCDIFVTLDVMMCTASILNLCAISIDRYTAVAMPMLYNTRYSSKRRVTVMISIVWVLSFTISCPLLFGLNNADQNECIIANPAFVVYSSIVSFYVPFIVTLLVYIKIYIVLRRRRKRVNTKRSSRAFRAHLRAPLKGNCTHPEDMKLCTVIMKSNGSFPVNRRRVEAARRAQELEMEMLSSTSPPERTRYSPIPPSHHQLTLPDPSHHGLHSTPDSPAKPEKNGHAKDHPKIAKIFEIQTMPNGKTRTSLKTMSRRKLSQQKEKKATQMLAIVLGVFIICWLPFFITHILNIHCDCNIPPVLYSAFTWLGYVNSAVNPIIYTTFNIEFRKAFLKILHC

SMILES	Ki [1] [nM]	melting point [°C]	Dopamine-D2 cAMP accum ε (intrinsic activity) [2]
N#Cc1ccc2occ(CCCCN3CCN(c4cccc5[nH]c(=O)oc45)CC3)c2c1 [Compound 6]	0.158	180 to 182	0.85
O=c1[nH]c2cccc(N3CCN(CCCc4csc5ccc(Cl)cc45)CC3)c2o1 [Compound 7]	3.16	211 to 213	0.39
O=c1[nH]c2cccc(N3CCN(CCCc4csc5ccc(F)cc45)CC3)c2o1 [Compound 8]	1.26	193 to 195	0.10
O=c1[nH]c2cccc(N3CCN(CCCCn4ccc5ccc(F)cc54)CC3)c2o1 [Compound 16]	0.794	143 to 145	0.73
Cn1c(=O)oc2c(N3CCN(CCCCc4csc5ccc(C#N)cc45)CC3)cccc21 [Compound 94]	3.16	184 to 186	0.70
Cn1c(=O)oc2c(N3CCN(CCC#Cc4ccc5ccc(F)cc5c4)CC3)cccc21 [Compound 135]	2		0.45
